In US6667317B2, “Pharmaceutical combinations for the treatment of stroke and traumatic brain injury” (Pfizer Inc, priority 2000, dated 2003):

How the values were obtained:
α1 adrenergic receptor = assay: Displacement of specific binding of [3H]prazosin from rat forebrain membranes; settings: 0.2 nM [3H]prazosin, affinity defined as IC50 for displacement of specific binding
Description: Compounds of the formula I have selectivity for NR^2B subunit-containing NMDA receptors over α1-adrengergic receptors. Affinity for the NR^2B subunit containing NMDA receptor is measured as the IC50 for displacement of specific binding of racemic [^3H] (+)-(1S, 2S)-1-(4-hydroxy-phenyl)-2-(4-hydroxy4-phenylpiperidino)-1-propanol from rat forebrain membranes (described above). Affinity for the α1-adrengergic receptor is defined as the IC50 for displacement of specific binding of racemic [^3H]prazosin from rat brain membranes, measured as described by Greengrass and Bremner (Binding Characteristics of [^3H]prazosin to Rat Brain α-Adrenergic Receptors, European Journal of Pharmacology, 55, 323-326, (1979)).
Forebrains of adult male Sprague Dawley rats are homogenized in 20 volumes of ice cold 50 mM Tris/HCl buffer (pH 7.7). The homogenate is centrifuged at 50,000×g for 10 minutes at 4° C. The pellet is resuspended and centrifuged under identical conditions and the final pellet is resuspended in 80 volumes of 50 mM Tris/HCl (pH 8.0) at 4° C.
For binding assays, compounds under study are added at various concentrations to 500 μg membrane protein in 1 ml of 50 mM Tris/HCl buffer, followed by [^3H]prazosin (Amersham, specific activity 33 Ci/mmol, 0.2 nM final concentration). Following incubation for 30 min at 25° C. in a shaking water bath, samples are filtered onto Whatman GFB glass fiber filters using a MB-48R Cell Harvester (Brandel Research and Development Laboratories, Gaithersburg Md.). Filters are washed three times for 10s with ice cold Tris HCl buffer and the radioactivity trapped on the filter quantified by liquid scintillation spectroscopy. Nonspecific binding is determined in parallel incubations containing 100 nM prazosin. Specific binding is defined as total binding minus nonspecific binding.

[1] = target: T1, NR2B subunit containing NMDA receptor (Rattus norvegicus, UniProt P35439+Q00960); assay: Displacement of specific binding of racemic [3H](+)-(1S,2S)-1-(4-hydroxy-phenyl)-2-(4-hydroxy-4-phenylpiperidino)-1-propanol ([3H]CP-101,606) from rat forebrain membranes; settings: ratio of the two binding IC50s; selectivity for NR2B NMDA receptor over α1 adrenergic receptor; greater than three is considered selective
T1 construct: (+)-(1S, 2S)-1-(4-hydroxy-phenyl)-2-(4-hydroxy4-phenylpiperidino)-1-propanol from rat forebrain membranes; from tissue; host or cells: forebrain membranes of adult male CD rats
Description: This affinity is assessed in a radioligand binding assay as described below.
The binding of racemic [^3H] […] Forebrains of adult male CD rats are homogenized in 0.32M sucrose at 4° C. The crude nuclear pellet is removed by centrifugation at 1,000×g for 10 minutes, and the supernatant centrifuged at 17,000×g for 25 minutes. The resulting pellet is resuspended in 5 mM Tris acetate pH 7.4 at 4° C. for 10 minutes to lyse cellular particles and again centrifuged at 17,000×g. The resulting pellet is washed twice in Tris acetate, resuspended at 10 mg protein/ml and stored at −20° C. until use.
For binding assays, membranes are thawed, homogenized, and diluted to 0.5 mg protein/ml with 50 mM Tris HCl, pH 7.4. Compounds under study are added at various concentrations followed by racemic [^3H] […] Following incubation for 20 min at 30° C. in a shaking water bath, samples are filtered onto Whatman GFB glass fiber filters using a MB-48R Cell Harvester (Brandel Research and Development Laboratories, Gaithersburg Md.). Filters are washed for 10 s with ice cold Tris HCl buffer and the radioactivity trapped on the filter quantified by liquid scintillation spectroscopy. […] Specific binding is defined as total binding minus nonspecific binding.
Affinity for the NR^2B subunit containing NMDA receptor is measured as the IC50 for displacement of specific binding of racemic [^3H] […] Affinity for the α1-adrengergic receptor is defined as the IC50 for displacement of specific binding of racemic [^3H]prazosin from rat brain membranes, measured as described by Greengrass and Bremner (Binding Characteristics of [^3H]prazosin to Rat Brain α-Adrenergic Receptors, European Journal of Pharmacology, 55, 323-326, (1979)).

T1 sequence (Q00960 27-1482, other chains not shown): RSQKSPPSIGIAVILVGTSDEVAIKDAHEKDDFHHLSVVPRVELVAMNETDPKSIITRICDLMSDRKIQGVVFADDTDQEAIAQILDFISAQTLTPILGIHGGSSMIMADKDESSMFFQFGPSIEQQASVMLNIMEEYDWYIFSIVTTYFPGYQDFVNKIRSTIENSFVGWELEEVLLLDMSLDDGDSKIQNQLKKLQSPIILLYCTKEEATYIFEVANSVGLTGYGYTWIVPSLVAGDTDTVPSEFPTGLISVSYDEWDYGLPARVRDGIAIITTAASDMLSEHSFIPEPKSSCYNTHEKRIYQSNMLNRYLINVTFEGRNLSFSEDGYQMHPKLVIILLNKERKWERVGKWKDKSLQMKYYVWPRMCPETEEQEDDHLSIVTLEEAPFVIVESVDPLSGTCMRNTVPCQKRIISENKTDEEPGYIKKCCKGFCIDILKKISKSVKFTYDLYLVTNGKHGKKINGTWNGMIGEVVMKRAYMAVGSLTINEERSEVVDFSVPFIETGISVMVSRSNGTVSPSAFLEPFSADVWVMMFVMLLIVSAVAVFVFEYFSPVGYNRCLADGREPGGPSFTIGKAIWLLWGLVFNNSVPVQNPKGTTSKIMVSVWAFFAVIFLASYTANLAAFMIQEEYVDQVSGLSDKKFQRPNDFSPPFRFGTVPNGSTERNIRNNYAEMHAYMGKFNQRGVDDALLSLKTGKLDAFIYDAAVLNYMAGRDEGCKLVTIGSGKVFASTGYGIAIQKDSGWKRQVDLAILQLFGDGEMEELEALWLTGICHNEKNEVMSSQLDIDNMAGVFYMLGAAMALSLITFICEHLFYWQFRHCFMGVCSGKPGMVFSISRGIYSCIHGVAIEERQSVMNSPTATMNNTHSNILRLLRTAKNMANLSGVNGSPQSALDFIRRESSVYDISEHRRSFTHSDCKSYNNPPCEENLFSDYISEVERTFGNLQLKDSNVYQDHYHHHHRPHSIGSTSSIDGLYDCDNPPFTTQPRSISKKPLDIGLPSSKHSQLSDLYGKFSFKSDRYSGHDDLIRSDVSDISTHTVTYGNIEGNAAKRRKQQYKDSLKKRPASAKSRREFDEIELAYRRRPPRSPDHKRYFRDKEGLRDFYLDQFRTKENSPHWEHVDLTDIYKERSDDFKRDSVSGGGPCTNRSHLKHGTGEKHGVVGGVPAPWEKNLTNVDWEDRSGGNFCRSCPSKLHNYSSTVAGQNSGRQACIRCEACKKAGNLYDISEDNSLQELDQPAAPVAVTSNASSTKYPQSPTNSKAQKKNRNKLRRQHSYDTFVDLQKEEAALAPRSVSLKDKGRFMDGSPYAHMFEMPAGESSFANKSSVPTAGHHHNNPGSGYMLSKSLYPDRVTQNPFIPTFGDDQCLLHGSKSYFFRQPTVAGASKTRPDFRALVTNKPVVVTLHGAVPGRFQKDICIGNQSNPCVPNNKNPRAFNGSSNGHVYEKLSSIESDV

Compound | IC50 (α1 adrenergic receptor) [µM] | Ratio [^3H]Prazosin/[^3H](+)-(1S, 2S)-1-(4-hydroxy-phenyl)-2-(4-hydroxy-4-phenylpiperidino)-1-propanol [1] | melting point [°C]
Oc1ccc2c(c1)OC[C@@H](N1CCC(O)(c3ccc(F)cc3)CC1)[C@H]2O [(3R,4S)-3-[4-(4-fluorophenyl)-4-hydroxy-piperidin-1-yl]-chroman-4,7-diol] | > 10 | ≧555 | –
Cc1cc([C@@H](O)[C@@H](C)N2CCC(O)(c3ccc(F)cc3)CC2)ccc1O (relative stereo) [(1R*, 2R*)-1-(4-hydroxy-3-methylphenyl)-2-(4-(4-fluorophenyl)-4-hydroxypiperidin-1-yl)-propan-1-ol-mesylate] | 10 | – | –
C[C@@H]([C@@H](O)c1ccc(O)cc1)N1CCC(O)(c2ccccc2)CC1 [(1S,2S)-1-(4-hydroxyphenyl)-2-(4-hydroxy-4-phenylpiperidino)-1-propanol] | 19.5 | – | –
Oc1ccc2c(c1)OCC(N1CCC(O)(c3ccc(F)cc3)CC1)[C@H]2O (stereo in doubt) | – | – | 159 to 160
COc1cc([C@H](O)[C@H](C)N2CCC(O)(c3ccccc3)CC2)ccc1O [1S, 2S 1-(4-hydroxy-3-methoxyphenyl)-2-(4-hydroxy-4-phenyl-piperidin-1-yl)-propan-1-ol] | 8.1 | 86 | –
OC(CN1CCC(Cc2ccc(F)cc2)CC1)c1ccc(Cl)cc1 (stereo not drawn) [Eliprodil, reference compound] | 0.98 ± 0.22 | 2.2 | –
